Assay results reported in ChEMBL document CHEMBL1151219, “Bioactive diterpenoids, a new jatrophane and two ent-abietanes, and other constituents from Euphorbia pubescens” (2004).
Calls of active or inactive are those of the source. No cut-off for these calls is given here.

Experiments:
NCI-H460 = test: Growth inhibition of human NCI-H460 cells after 48 hrs by SRB assay; assay type: functional; conditions: NCI-H460, 48 h
MCF7 = test: Growth inhibition of human MCF7 cells after 48 hrs by SRB assay; assay type: functional; conditions: MCF7, 48 h
SF-268 [1] = test: Growth inhibition of human SF268 cells after 48 hrs by SRB assay; assay type: functional; conditions: SF-268, 48 h
Staphylococcus aureus = test: Antibacterial activity against Staphylococcus aureus ATCC 6538P at 2.5 ug/spot after 24 hrs by bioautographic agar overlay method; assay type: functional, organism-based
SF-268 [2] = test: Growth inhibition of human SF268 cells at 100 uM after 48 hrs by SRB assay; assay type: functional, cell-based
Escherichia coli = test: Antibacterial activity against Escherichia coli ATCC 25922 at 40 ug/spot after 24 hrs by bioautographic agar overlay method; assay type: functional, organism-based
Pseudomonas aeruginosa = test: Antibacterial activity against Pseudomonas aeruginosa ATCC 27853 at 40 ug/spot after 24 hrs by bioautographic agar overlay method; assay type: functional, organism-based

GI50 (NCI-H460) [µM]	GI50 (MCF7) [µM]	SMILES	GI50 (SF-268 [1]) [µM]	Activity (Staphylococcus aureus)	Activity (SF-268 [2])	Activity (Escherichia coli)	Activity (Pseudomonas aeruginosa)
0.094	42.8	COc1cccc2c1C(=O)c1c(O)c3c(c(O)c1C2=O)C[C@@](O)(C(=O)CO)C[C@@H]3O[C@H]1C[C@H](N)[C@H](O)[C@H](C)O1 [DOXORUBICIN]	0.093	–	–	–	–
72.8	67.5	CC1=C2C=C3CC[C@@H]4C(C)(C)[C@H](O)CC[C@@]4(C)[C@@H]3C[C@H]2OC1=O [HELIOSCOPINOLIDE A]	> 100	Active	inactive	inactive	inactive
> 100	77	CC1=C2C=C3CC[C@@H]4C(C)(C)[C@@H](O)CC[C@@]4(C)[C@@H]3C[C@H]2OC1=O [HELIOSCOPINOLIDE B]	> 100	Active	inactive	inactive	inactive
37.5	37.5	CC(=O)O[C@H]1[C@H](C)C[C@]2(O)C(=O)/C(C)=C/CC(C)(C)[C@H](OC(C)=O)C[C@@H](OC(=O)c3ccccc3)/C(C)=C/[C@@H]12 [PUBESCENE D]	90.1	–	–	–	–
55.6	69	C=C1C[C@H](OC(C)=O)C(=O)C(C)(C)/C=C/[C@@H](C)C(=O)[C@@]2(OC(C)=O)C[C@H](C)[C@H](OC(=O)c3ccccc3)[C@]2(O)[C@H]1OC(C)=O [PUBESCENOL]	75.2	–	–	–	–
